The source made the active and inactive calls. The rule behind the calls is not given here.
Columns and labels:
[1] = target: NACHT, LRR and PYD domains-containing protein 3 (Mus musculus, UniProt Q8R4B8); assay: (§1) Inhibition of nigericin-induced NLRP3 inflammasome activation in C57BL/6 mouse bone marrow derived macrophages assessed as reduction in LPS-stimulated IL-1beta secretion incubated for 1 hr followed by nigericin addition measured after 1 hr by ELISA
[2] = target: T1, NACHT, LRR and PYD domains-containing protein 3 (Homo sapiens, UniProt Q96P20); assay: Inhibition of nigericin-induced NLRP3 inflammasome activation in PMA-differentiated human THP1 cells assessed as reduction in LPS-stimulated IL-1beta secretion incubated for 1 hr prior to stimulation with nigericin for 1 hr by quanti-blue based SEAP reporter gene assay
T1 sequence (Q96P20 whole entry, the tested form may be a part): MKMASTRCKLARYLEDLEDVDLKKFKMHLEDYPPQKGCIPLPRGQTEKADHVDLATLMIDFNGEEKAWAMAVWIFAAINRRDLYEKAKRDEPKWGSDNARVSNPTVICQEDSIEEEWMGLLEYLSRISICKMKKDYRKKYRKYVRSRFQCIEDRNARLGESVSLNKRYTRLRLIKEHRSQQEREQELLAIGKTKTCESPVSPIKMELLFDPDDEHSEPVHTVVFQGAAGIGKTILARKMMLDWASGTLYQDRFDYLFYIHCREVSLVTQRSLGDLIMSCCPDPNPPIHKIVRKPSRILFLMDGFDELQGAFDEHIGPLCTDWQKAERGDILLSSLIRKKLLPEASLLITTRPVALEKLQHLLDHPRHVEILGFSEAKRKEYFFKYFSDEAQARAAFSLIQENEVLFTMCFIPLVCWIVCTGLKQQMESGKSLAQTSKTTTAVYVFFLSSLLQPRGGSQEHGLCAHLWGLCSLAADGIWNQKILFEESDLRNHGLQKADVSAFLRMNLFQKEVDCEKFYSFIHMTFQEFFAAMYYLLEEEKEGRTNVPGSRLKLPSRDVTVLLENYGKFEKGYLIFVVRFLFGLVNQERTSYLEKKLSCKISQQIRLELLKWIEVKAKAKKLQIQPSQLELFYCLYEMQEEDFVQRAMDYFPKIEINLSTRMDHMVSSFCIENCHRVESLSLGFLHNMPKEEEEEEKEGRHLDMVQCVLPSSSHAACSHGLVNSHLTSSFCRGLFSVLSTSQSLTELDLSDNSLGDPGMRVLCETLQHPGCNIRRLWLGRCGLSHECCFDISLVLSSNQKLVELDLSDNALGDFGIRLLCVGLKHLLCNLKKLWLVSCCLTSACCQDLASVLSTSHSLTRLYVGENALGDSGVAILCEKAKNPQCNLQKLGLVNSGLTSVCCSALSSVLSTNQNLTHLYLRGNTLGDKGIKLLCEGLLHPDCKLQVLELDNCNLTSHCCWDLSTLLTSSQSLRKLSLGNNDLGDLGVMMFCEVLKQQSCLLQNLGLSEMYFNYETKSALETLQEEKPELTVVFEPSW

[3] = target: NACHT, LRR and PYD domains-containing protein 3 (Mus musculus) (UniProt Q8R4B8); assay: as §1
Chain of NACHT, LRR and PYD domains-containing protein 3 (Mus musculus) (Q8R4B8 whole entry, the tested form may be a part): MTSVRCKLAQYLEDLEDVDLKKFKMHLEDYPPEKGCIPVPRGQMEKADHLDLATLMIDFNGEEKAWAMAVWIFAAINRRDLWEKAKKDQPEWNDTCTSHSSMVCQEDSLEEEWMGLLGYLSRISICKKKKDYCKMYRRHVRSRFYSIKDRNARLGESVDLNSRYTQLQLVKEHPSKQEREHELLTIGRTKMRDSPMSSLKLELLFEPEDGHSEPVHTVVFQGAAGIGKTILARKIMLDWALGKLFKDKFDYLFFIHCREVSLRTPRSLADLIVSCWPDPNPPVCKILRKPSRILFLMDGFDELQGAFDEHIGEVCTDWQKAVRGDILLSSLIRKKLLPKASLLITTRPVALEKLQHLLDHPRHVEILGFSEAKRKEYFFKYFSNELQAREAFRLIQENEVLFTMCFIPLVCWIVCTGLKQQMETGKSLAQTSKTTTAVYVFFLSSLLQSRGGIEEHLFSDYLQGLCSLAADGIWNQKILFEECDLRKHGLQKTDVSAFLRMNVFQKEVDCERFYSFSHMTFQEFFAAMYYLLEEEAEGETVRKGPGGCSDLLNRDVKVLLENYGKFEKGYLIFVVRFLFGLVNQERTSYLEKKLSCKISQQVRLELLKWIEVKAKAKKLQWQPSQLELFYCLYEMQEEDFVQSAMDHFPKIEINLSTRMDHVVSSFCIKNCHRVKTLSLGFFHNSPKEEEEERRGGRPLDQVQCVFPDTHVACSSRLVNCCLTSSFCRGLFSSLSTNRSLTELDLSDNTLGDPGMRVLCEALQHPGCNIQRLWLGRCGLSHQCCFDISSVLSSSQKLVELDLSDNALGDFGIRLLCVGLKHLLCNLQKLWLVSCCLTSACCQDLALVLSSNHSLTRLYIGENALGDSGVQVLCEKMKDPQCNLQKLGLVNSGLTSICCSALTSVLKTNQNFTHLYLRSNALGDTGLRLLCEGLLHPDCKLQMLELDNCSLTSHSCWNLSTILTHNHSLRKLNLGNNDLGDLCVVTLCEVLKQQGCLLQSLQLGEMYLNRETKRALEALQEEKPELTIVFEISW

[4] = target: NACHT, LRR and PYD domains-containing protein 3 (Mus musculus) (UniProt Q8R4B8); assay: Inhibition of nigericin-induced NLRP3-dependent pyroptosis in C57BL/6 mouse bone marrow derived macrophages assessed as restoration of LPS-stimulated decrease in intracellular ATP level incubated for 1 hr followed by nigericin addition measured after 1 hr by cell titer-glo reagent based luminescence assay
[5] = target: NACHT, LRR and PYD domains-containing protein 3 (Mus musculus) (UniProt Q8R4B8); assay: as §1, with “LPS-stimulated processing of pro-IL-1beta to mature” for “LPS-stimulated”, “in supernatant at 100 uM” for “secretion”, “Western blot analysis” for “ELISA”
[6] = target: NACHT, LRR and PYD domains-containing protein 3 (Mus musculus) (UniProt Q8R4B8); assay: as §1, with “LPS-stimulated processing of pro-IL-1beta to mature” for “LPS-stimulated”, “in cell lysate at 100 uM” for “secretion”, “Western blot analysis” for “ELISA”
[7] = target: NACHT, LRR and PYD domains-containing protein 3 (Mus musculus) (UniProt Q8R4B8); assay: as §1, with “LPS-stimulated processing of pro-IL-1beta to mature” for “LPS-stimulated”, “in supernatant at 6.8 mM” for “secretion”, “Western blot analysis” for “ELISA”
[8] = target: NACHT, LRR and PYD domains-containing protein 3 (Mus musculus) (UniProt Q8R4B8); assay: as §1, with “LPS-stimulated processing of pro-IL-1beta to mature” for “LPS-stimulated”, “in cell lysate at 6.8 mM” for “secretion”, “Western blot analysis” for “ELISA”
[9] = target: T1, NACHT, LRR and PYD domains-containing protein 3; assay: (§2) Inhibition of nigericin-induced NLRP3 inflammasome activation in PMA-differentiated human THP1 cells assessed as reduction in LPS-stimulated processing of pro-IL-1beta to mature IL-1beta in supernatant at 3.4 mM incubated for 1 hr followed by nigericin addition measured after 1 hr by Western blot analysis
[10] = target: T1, NACHT, LRR and PYD domains-containing protein 3; assay: as §2, with “cell lysate” for “supernatant”
[11] = target: T1, NACHT, LRR and PYD domains-containing protein 3; assay: Inhibition of nigericin-induced NLRP3 inflammasome activation in PMA-differentiated human THP1 cells assessed as reduction in LPS-stimulated IL-1beta secretion at 60 mM incubated for 1 hr prior to stimulation with nigericin for 1 hr by ELISA

Chain of NACHT, LRR and PYD domains-containing protein 3 (Mus musculus, UniProt Q8R4B8) (Q8R4B8 whole entry, the tested form may be a part): as above

Structure (SMILES)	IC50 [1]	IC50 [2]	inhibition [3]	inhibition [4]	also measured
O=C1C=C[C@H]2CO[C@@H]1O2	1.2 µM	6.6 µM	–	–	–
O=C1C=C[C@@H](CO)OC1	16 µM	–	Dose-dependent effect	Dose-dependent effect	inhibition [5]: Active; inhibition [6]: Active
CC(=O)OC1=C(F)C(OC(C)=O)[C@@H]2CO[C@H]1O2 (stereo partly specified)	1 µM	3.7 µM	–	Dose-dependent effect	–
O=C1C(F)=C[C@@H]2CO[C@H]1O2 (single isomer, unassigned)	0.8 µM	4.8 µM	–	Dose-dependent effect	–
CCCCCCCC(=O)OC[C@@H]1C=CC(=O)CO1	8.4 µM	5.1 µM	–	Dose-dependent effect	–
CC(=O)OC[C@@H]1C=C(F)C(=O)CO1	3.2 µM	3.7 µM	–	Dose-dependent effect	–
CC(=O)OC[C@@H]1C=CC(=O)CO1	5.7 µM	4.3 µM	–	Dose-dependent effect	–
CCCC(=O)OC[C@@H]1C=CC(=O)CO1	3.6 µM	3.6 µM	–	Dose-dependent effect	–
O=C1CO[C@H](CO)[C@@H](O)C1	1600 µM	2300 µM	Dose-dependent effect	Dose-dependent effect	inhibition [7]: Active; inhibition [8]: Active; inhibition [9]: Active; inhibition [10]: Active
O=C1CO[C@H](CO)[C@@H](O)[C@@H]1O	29000 µM	–	Dose-dependent effect	–	inhibition [11]: inactive
